Experiments:
Akt = test: Western blot of phospho Akt (T308, S473) in striatum; set-up: species or system mice; conditions: mouse, in vivo
Description: After behavioral testing, mice again received their assigned injection and then, 45 minutes later, were decapitated under anesthesia. Tissue samples were processed as follows. Briefly, the brain was dissected, rapidly frozen on dry ice, and stored at −80° C. Striatal tissue was collected from 100 μm coronal slices cut at the level of striatum using a cryostat (Leica CM1950, Leica Biosystems Inc, Buffalo Groove, Ill.). Striatal samples from the intact and the lesioned hemisphere were separately collected in 150p1 of lysis solution (Totally RNA, Ambion, Austin, Tex.). Care was taken to make sure that the tissue samples were collected from similar regions in all the brain samples analyzed, since there are differences in the expression of GRKs from rostral to caudal CPu. Protein concentration was estimated using Bradford reagent (Bio-Rad, Hercules, Calif.). 200m protein was precipitated with 100% methanol and centrifuged at 10000 g for 10 mins in a table top centrifuge. The pellet was re-suspended in 90% methanol and centrifuged for an additional 10 mins at 10000 g. The supernatant was discarded and the pellet was air dried and dissolved in 400 μL of β-mercaptoethanol containing 2× Laemmli sample buffer (Biorad, Hercules, Calif.), for a final concentration of 0.5 mg/mL. These samples were stored at −80° C. until use. Samples were electrophoresed through 10% polyacrylamide gels and transferred on to Immobilon-P PVDF membranes (Millipore, Bedford, Mass.) and processed. […] Western blots were quantified using band densitometry in Image J software (NIH version). […] Results are represented as group mean±SEM and analyzed using one-way or repeated-measures ANOVA (RM-ANOVA), with post hoc Bonferroni tests. The mouse cylinder test was analyzed with RM-ANOVA, with group (DOPA and DOPA-ranitidine formulations) as a between-group factor and saline vs. DOPA treatment as a within-group factor. AIMs scores were analyzed using the Kruskal Wallis test for pre-testing (DOPA injected animals) and the Mann-Whitney U test for the post-testing sessions (DOPA vs DOPA-ranitidine formulations). […]

GRK3 = test: Western blot of GRK3 in intact and lesioned striatum; format: in vivo, mice; conditions: normalized to actin; formulation and ranitidine groups compared with the DOPA-treated group, Bonferroni post-hoc
Description: (§1) After behavioral testing, mice again received their assigned injection and then, 45 minutes later, were decapitated under anesthesia. Tissue samples were processed as follows. Briefly, the brain was dissected, rapidly frozen on dry ice, and stored at −80° C. Striatal tissue was collected from 100 μm coronal slices cut at the level of striatum using a cryostat (Leica CM1950, Leica Biosystems Inc, Buffalo Groove, Ill.). Striatal samples from the intact and the lesioned hemisphere were separately collected in 150p1 of lysis solution (Totally RNA, Ambion, Austin, Tex.). Care was taken to make sure that the tissue samples were collected from similar regions in all the brain samples analyzed, since there are differences in the expression of GRKs from rostral to caudal CPu. […]
(§2) Western blots were quantified using band densitometry in Image J software (NIH version). […] Results are represented as group mean±SEM and analyzed using one-way or repeated-measures ANOVA (RM-ANOVA), with post hoc Bonferroni tests. The mouse cylinder test was analyzed with RM-ANOVA, with group (DOPA and DOPA-ranitidine formulations) as a between-group factor and saline vs. DOPA treatment as a within-group factor. AIMs scores were analyzed using the Kruskal Wallis test for pre-testing (DOPA injected animals) and the Mann-Whitney U test for the post-testing sessions (DOPA vs DOPA-ranitidine formulations). […]

GRK6 = test: Western blot of GRK6 in intact and lesioned striatum; format: in vivo, mice; conditions: normalized to actin
Description: as §1, §2

SMILES	Akt phosphorylation at Ser473 (Akt)	Akt phosphorylation at Thr308 in the lesioned striatum (Akt)	GRK3 in the lesioned hemisphere as % expression of the intact side (GRK3)	GRK6 in the lesioned hemisphere versus the intact control side (GRK6)
N[C@@H](Cc1ccc(O)c(O)c1)C(=O)O [L-DOPA, L-3,4-dihydroxyphenylalanine]	not statistically significant	elevated in the lesioned striatum	significantly reduced in the lesioned hemisphere	Only a marginal degree of down regulation
CN/C(=C\[N+](=O)[O-])NCCSCc1ccc(CN(C)C)o1 [Ranitidine, N-(2-[(5-[(dimethylamino)methyl]furan-2-yl)methylthio]ethyl)-N′-methyl-2-nitroethene-1,1-diamine]		no effect	significantly attenuated	enhanced the expression

Source: US20190054051A1, “DOPA Formulations for Treatments of Parkinson's Disease” (The Board of Trustees of the Leland Stanford Junior …, priority 2017, published 2019)
